Assay results published in patent US20230265151A1, “GIP/GLP1 CO-AGONIST COMPOUNDS” (priority 2020, published 2023).
Where two headings read alike, the source gives them in different places.

Legend:
Format in all cases: cell-based
hGIPR = biological target: T1, hGIPR (Homo sapiens, UniProt P48546); test: Functional cAMP formation (HTRF) in HEK-293 clonal cells expressing hGIPR, 0.1% bovine casein, without or with 1.0% human serum albumin; conditions: 37° C.; for EC50: geometric mean, read-out: hGIPR EC50, nM (SEM, n)
T1 construct: expressed in transfected cells
T1 sequence (P48546 22-466): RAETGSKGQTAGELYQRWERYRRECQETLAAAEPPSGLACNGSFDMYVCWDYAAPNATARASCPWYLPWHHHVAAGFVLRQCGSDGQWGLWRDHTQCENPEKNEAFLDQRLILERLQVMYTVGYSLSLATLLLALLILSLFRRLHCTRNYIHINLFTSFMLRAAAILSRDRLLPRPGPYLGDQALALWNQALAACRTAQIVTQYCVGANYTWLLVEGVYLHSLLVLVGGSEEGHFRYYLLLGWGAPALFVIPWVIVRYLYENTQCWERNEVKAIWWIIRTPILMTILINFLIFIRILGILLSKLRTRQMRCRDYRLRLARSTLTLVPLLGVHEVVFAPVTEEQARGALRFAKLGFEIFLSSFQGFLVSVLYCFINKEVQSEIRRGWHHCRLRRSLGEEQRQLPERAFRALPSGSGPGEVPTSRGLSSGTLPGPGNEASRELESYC
In short: (§1)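 Cells were stimulated with peptide for 30 min at 37° C, then lysed in buffer carrying cAMP-d2 and anti-cAMP Eu3+-cryptate for a competitive HTRF read after at least 60 min at room temperature. The 665/620 nm ratio was converted to nM cAMP against a standard curve.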

hGCGR = biological target: T2, hGCGR (Homo sapiens, UniProt P47871); test: Functional cAMP formation (HTRF) in HEK-293 clonal cells expressing hGCGR, 0.1% bovine casein, without or with 1.0% human serum albumin; conditions: geometric mean
T2 construct: expressed in transfected cells
In short: as §1

hGLP-1R = hGLP-1R (Homo sapiens, UniProt P43220); test: Functional cAMP formation (HTRF) in HEK-293 clonal cells expressing hGLP-1R, 0.1% bovine casein, without or with 1.0% human serum albumin; set-up: expressed in transfected cells; conditions: 37° C.; for EC50: cAMP, 0.1% bovine casein (no human serum albumin), geometric mean, read-out: hGLP-1R EC50, nM (SEM, n)
In short: as §1

[1] = HEK293, 0.1% bovine casein and 1.0% human serum albumin, percent of maximal response to GIP(1-42)NH2, read-out: hGIPR Emax, % ± SEM
[2] = HEK293, cAMP, 0.1% bovine casein, percent of maximal response to GIP(1-42)NH2, arithmetic mean, read-out: hGIPR Emax, % ± SEM
[3] = cAMP, 0.1% bovine casein (no human serum albumin)
[4] = 0.1% bovine casein and 1.0% human serum albumin, 37° C., read-out: hGCGR EC50, nM (SEM, n)
[5] = cAMP, 37° C., 0.1% bovine casein (no human serum albumin), read-out: hGCGR EC50, nM (SEM, n)
[6] = HEK293, 0.1% bovine casein and 1.0% human serum albumin, percent of maximal response to GLP-1(7-36)NH2, read-out: hGLP-1R Emax, % ± SEM

hGLP-1R, sequence (P43220 24-463): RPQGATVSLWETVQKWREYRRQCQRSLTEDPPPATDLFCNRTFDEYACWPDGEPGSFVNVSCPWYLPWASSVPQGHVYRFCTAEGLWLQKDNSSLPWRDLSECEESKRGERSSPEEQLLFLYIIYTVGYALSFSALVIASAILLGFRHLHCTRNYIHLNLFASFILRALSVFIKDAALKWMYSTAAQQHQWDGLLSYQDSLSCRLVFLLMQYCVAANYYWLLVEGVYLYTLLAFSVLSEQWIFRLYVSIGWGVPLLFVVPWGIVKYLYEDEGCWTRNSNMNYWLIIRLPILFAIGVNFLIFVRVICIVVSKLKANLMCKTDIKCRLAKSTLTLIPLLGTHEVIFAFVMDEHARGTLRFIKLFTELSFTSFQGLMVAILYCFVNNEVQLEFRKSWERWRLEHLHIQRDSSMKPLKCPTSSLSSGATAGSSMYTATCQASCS
T2 sequence (P47871 26-477): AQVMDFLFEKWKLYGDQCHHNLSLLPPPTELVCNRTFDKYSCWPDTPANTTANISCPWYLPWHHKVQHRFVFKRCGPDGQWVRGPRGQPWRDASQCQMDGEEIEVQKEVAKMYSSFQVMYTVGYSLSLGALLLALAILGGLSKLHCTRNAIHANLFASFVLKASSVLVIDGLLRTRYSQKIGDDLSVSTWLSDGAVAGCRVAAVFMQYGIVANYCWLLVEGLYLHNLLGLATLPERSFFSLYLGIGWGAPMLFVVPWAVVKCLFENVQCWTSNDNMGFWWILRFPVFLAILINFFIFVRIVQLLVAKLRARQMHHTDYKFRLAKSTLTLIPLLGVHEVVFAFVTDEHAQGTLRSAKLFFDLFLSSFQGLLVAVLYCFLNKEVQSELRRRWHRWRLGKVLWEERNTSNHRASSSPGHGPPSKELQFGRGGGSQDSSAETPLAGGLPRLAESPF

| SMILES | Emax (hGIPR; [1]) [%] | Emax (hGIPR; [2]) [%] | EC50 (hGIPR; [3]) [nM] | EC50 (hGCGR; [4]) [nM] | EC50 (hGCGR; [5]) [nM] | Emax (hGLP-1R; [6]) [%] | EC50 (hGLP-1R) [nM] | Emax (hGIPR; HEK293, read-out: hGIPR Emax, % ± SEM, percent of maximal response to GIP(1-42)NH2, 0.1% bovine casein, arithmetic mean) [%] | EC50 (hGCGR; hGCGR EC50, nM (SEM, n), cAMP, incubated at 37° C., 0.1% bovine casein (no human serum albumin)) [nM] | Emax (hGLP-1R; HEK293, read-out: hGLP-1R Emax, % ± SEM, percent of maximal response to GLP-1(7-36)NH2, 0.1% bovine casein, arithmetic mean) [%] | EC50 (hGIPR; 0.1% bovine casein and 1.0% human serum albumin) [nM] | Emax (hGLP-1R; HEK293, cAMP, 0.1% bovine casein, percent of maximal response to GLP-1(7-36)NH2, arithmetic mean, read-out: hGLP-1R Emax, % ± SEM) [%] |
| --- | --- | --- | --- | --- | --- | --- | --- | --- | --- | --- | --- | --- |
| CC[C@H](C)[C@H](NC(=O)[C@H](CCCN)NC(=O)[C@H](CC(=O)O)NC(=O)[C@H](CC(C)C)NC(=O)[C@](C)(CC(C)C)NC(=O)[C@@H](NC(=O)[C@](C)(CO)NC(=O)[C@@H](NC(=O)[C@H](CC(=O)O)NC(=O)[C@H](CO)NC(=O)[C@@H](NC(=O)[C@](C)(Cc1ccccc1F)NC(=O)[C@@H](NC(=O)CNC(=O)[C@H](CCC(=O)O)NC(=O)C(C)(C)NC(=O)[C@@H](N)Cc1ccc(O)cc1)[C@@H](C)O)[C@@H](C)O)C(C)C)[C@@H](C)CC)C(=O)N[C@@H](C)C(=O)N[C@@H](CCC(N)=O)C(=O)NC(C)(C)C(=O)N[C@@H](CCC(=O)O)C(=O)N[C@@H](Cc1ccccc1)C(=O)N[C@H](C(=O)N[C@@H](CCCCNC(=O)COCCOCCNC(=O)COCCOCCNC(=O)CC[C@H](NC(=O)CCCCCCCCCCCCC(=O)O)C(=O)O)C(=O)N[C@@](C)(Cc1ccc(O)cc1)C(=O)N[C@@H](CC(C)C)C(=O)N[C@H](C(=O)N[C@@H](CCCCNC(=O)COCCOCCNC(=O)COCCOCCNC(=O)CC[C@H](NC(=O)CCCCCCCCCCCCC(=O)O)C(=O)O)C(=O)NCC(=O)NCC(=O)N1CCC[C@H]1C(=O)N[C@@H](CO)C(=O)N[C@@H](CO)C(=O)NCC(=O)N[C@@H](C)C(=O)N1CCC[C@H]1C(=O)N1CCC[C@H]1C(=O)N1CCC[C@H]1C(=O)N[C@@H](CO)C(N)=O)[C@@H](C)CC)[C@@H](C)CC [Example 305] | 95.4 | 105 | 0.0289 | > 9950 | > 9950 | 125 | 0.629 |  |  |  |  |  |
| CC[C@H](C)[C@H](NC(=O)[C@H](CCCN)NC(=O)[C@H](CC(=O)O)NC(=O)[C@H](CC(C)C)NC(=O)[C@](C)(CC(C)C)NC(=O)[C@@H](NC(=O)[C@](C)(CO)NC(=O)[C@H](Cc1ccc(O)cc1)NC(=O)[C@H](CC(=O)O)NC(=O)[C@H](CO)NC(=O)[C@@H](NC(=O)[C@](C)(Cc1ccccc1F)NC(=O)[C@@H](NC(=O)CNC(=O)[C@H](CCC(=O)O)NC(=O)C(C)(C)NC(=O)[C@@H](N)Cc1ccc(O)cc1)[C@@H](C)O)[C@@H](C)O)[C@@H](C)CC)C(=O)N[C@@H](C)C(=O)N[C@@H](CCC(N)=O)C(=O)NC(C)(C)C(=O)N[C@@H](CCC(=O)O)C(=O)N[C@@H](Cc1ccccc1)C(=O)N[C@H](C(=O)N[C@@H](CCCCNC(=O)COCCOCCNC(=O)COCCOCCNC(=O)CC[C@H](NC(=O)CCCCCCCCCCCCC(=O)O)C(=O)O)C(=O)N[C@@](C)(Cc1ccc(O)cc1)C(=O)N[C@@H](CC(C)C)C(=O)N[C@H](C(=O)N[C@@H](CCCCNC(=O)COCCOCCNC(=O)COCCOCCNC(=O)CC[C@H](NC(=O)CCCCCCCCCCCCC(=O)O)C(=O)O)C(=O)NCC(=O)NCC(=O)N1CCC[C@H]1C(=O)N[C@@H](CO)C(=O)N[C@@H](CO)C(=O)NCC(=O)N[C@@H](C)C(=O)N1CCC[C@H]1C(=O)N1CCC[C@H]1C(=O)N1CCC[C@H]1C(=O)N[C@@H](CO)C(N)=O)[C@@H](C)CC)[C@@H](C)CC [Example 303] | 89.8 | 100 | 0.0178 | > 9950 | > 9950 | 111 | 0.389 |  |  |  |  |  |
| CC[C@H](C)[C@H](NC(=O)[C@H](CC(C)C)NC(=O)[C@](C)(Cc1ccc(O)cc1)NC(=O)[C@H](CCCCNC(=O)[C@@H](N)CCCCNC(=O)[C@@H](N)CCCCNC(=O)CC[C@H](NC(=O)CCCCCCCCCCCCC(=O)O)C(=O)O)NC(=O)[C@@H](NC(=O)[C@H](Cc1ccccc1)NC(=O)[C@H](CCC(=O)O)NC(=O)C(C)(C)NC(=O)[C@H](CCC(N)=O)NC(=O)[C@H](C)NC(=O)[C@H](CCCCNC(=O)[C@@H](N)CCCCNC(=O)[C@@H](N)CCCCNC(=O)CC[C@H](NC(=O)CCCCCCCCCCCCC(=O)O)C(=O)O)NC(=O)[C@H](CCCN)NC(=O)[C@H](CC(=O)O)NC(=O)[C@H](CC(C)C)NC(=O)[C@](C)(CC(C)C)NC(=O)[C@@H](NC(=O)C(C)(C)NC(=O)[C@@H](NC(=O)[C@H](CC(=O)O)NC(=O)[C@H](CO)NC(=O)[C@@H](NC(=O)[C@](C)(Cc1ccccc1F)NC(=O)[C@@H](NC(=O)CNC(=O)[C@H](CCC(=O)O)NC(=O)C(C)(C)NC(=O)[C@@H](N)Cc1ccc(O)cc1)[C@@H](C)O)[C@@H](C)O)C(C)C)[C@@H](C)CC)[C@@H](C)CC)C(=O)N[C@@H](CCC(=O)O)C(=O)NCC(=O)NCC(=O)N1CCC[C@H]1C(=O)N[C@@H](CO)C(=O)N[C@@H](CO)C(=O)NCC(=O)N[C@@H](C)C(=O)N1CCC[C@H]1C(=O)N1CCC[C@H]1C(=O)N1CCC[C@H]1C(=O)N[C@@H](CO)C(N)=O [Example 168] |  |  |  |  |  |  |  | 93 | > 9950 | 93.3 |  |  |
| CC[C@H](C)[C@H](NC(=O)[C@H](CC(C)C)NC(=O)[C@](C)(Cc1ccc(O)cc1)NC(=O)[C@@H](CCC(=O)O)NC(=O)[C@@H](NC(=O)[C@H](Cc1ccccc1)NC(=O)[C@H](CCC(=O)O)NC(=O)C(C)(C)NC(=O)[C@H](CCC(N)=O)NC(=O)[C@H](C)NC(=O)[C@H](CCCCNC(=O)COCCOCCNC(=O)COCCOCCNC(=O)CCCCCCCCCCCCC(=O)O)NC(=O)[C@H](CCCN)NC(=O)[C@H](CC(=O)O)NC(=O)[C@H](CC(C)C)NC(=O)[C@](C)(CC(C)C)NC(=O)[C@@H](NC(=O)[C@H](CO)NC(=O)[C@H](Cc1ccc2ccccc2c1)NC(=O)[C@H](CC(=O)O)NC(=O)[C@H](CO)NC(=O)[C@@H](NC(=O)[C@](C)(Cc1ccccc1F)NC(=O)[C@@H](NC(=O)CNC(=O)[C@H](CCC(=O)O)NC(=O)C(C)(C)NC(=O)[C@@H](N)Cc1ccc(O)cc1)[C@@H](C)O)[C@@H](C)O)[C@@H](C)CC)[C@@H](C)CC)C(=O)N[C@@H](CCCCNC(=O)COCCOCCNC(=O)COCCOCCNC(=O)CCCCCCCCCCCCC(=O)O)C(=O)NCC(=O)NCC(=O)N1CCC[C@H]1C(=O)N[C@@H](CO)C(=O)N[C@@H](CO)C(=O)NCC(=O)N[C@@H](C)C(=O)N1CCC[C@H]1C(=O)N1CCC[C@H]1C(=O)N1CCC[C@H]1C(=O)N[C@@H](CO)C(N)=O [Example 256] | 75.3 | 97.7 | 0.0175 | > 9950 | > 9950 | 95.5 | 0.249 |  |  |  | 1.5 | 95.4 |
| CC[C@H](C)[C@H](NC(=O)[C@H](CC(C)C)NC(=O)[C@](C)(Cc1ccc(O)cc1)NC(=O)[C@@H](CCC(=O)O)NC(=O)[C@@H](NC(=O)[C@H](Cc1ccccc1)NC(=O)[C@H](CCC(=O)O)NC(=O)C(C)(C)NC(=O)[C@H](CCC(N)=O)NC(=O)[C@H](C)NC(=O)[C@H](CCCCNC(=O)COCCOCCNC(=O)CC[C@H](NC(=O)CCCCCCCCCCCCC(=O)O)C(=O)O)NC(=O)[C@H](CCCN)NC(=O)[C@H](CC(=O)O)NC(=O)[C@H](CC(C)C)NC(=O)[C@](C)(CC(C)C)NC(=O)[C@@H](NC(=O)C(C)(C)NC(=O)[C@H](Cc1ccc(O)cc1)NC(=O)[C@H](CC(=O)O)NC(=O)[C@H](CO)NC(=O)[C@@H](NC(=O)[C@](C)(Cc1ccccc1F)NC(=O)[C@@H](NC(=O)CNC(=O)[C@H](CCC(=O)O)NC(=O)C(C)(C)NC(=O)[C@@H](N)Cc1ccc(O)cc1)[C@@H](C)O)[C@@H](C)O)[C@@H](C)CC)[C@@H](C)CC)C(=O)N[C@@H](CCC(=O)O)C(=O)NCC(=O)NCC(=O)N1CCC[C@H]1C(=O)N[C@@H](CO)C(=O)N[C@@H](CO)C(=O)NCC(=O)N[C@@H](C)C(=O)N1CCC[C@H]1C(=O)N1CCC[C@H]1C(=O)N1CCC[C@H]1C(=O)N[C@@H](CO)C(=O)N[C@@H](CCCCNC(=O)COCCOCCNC(=O)CC[C@H](NC(=O)CCCCCCCCCCCCC(=O)O)C(=O)O)C(N)=O [Example 368] |  | 105 | 0.0271 |  | > 9950 |  | 0.411 |  |  |  |  |  |
